Data taken from ChEMBL document CHEMBL3872237, “Nitric oxide-donating derivatives of hederacolchiside A1: Synthesis and biological evaluation in vitro and in vivo as potential anticancer agents” (Bioorg Med Chem Lett, 2017).

How the values were obtained:
[1] = Growth inhibition of human U251 cells after 48 hrs by MTT assay; type: functional, cell-based; settings: U-251, 48 h
[2] = Growth inhibition of human HCT116 cells after 48 hrs by MTT assay; type: functional, cell-based; settings: HCT-116, 48 h
[3] = Growth inhibition of human NCI-H460 cells after 48 hrs by MTT assay; type: functional, cell-based; settings: NCI-H460, 48 h
[4] = Growth inhibition of human SMMC7721 cells after 48 hrs by MTT assay; type: functional, cell-based; settings: SMMC-7721, 48 h
[5] = Antiproliferative activity against human HCT116 cells after 48 hrs by resazurin reduction assay; type: functional, cell-based; settings: HCT-116, 48 h
[6] = Antitumor activity against mouse H22 cells xenografted in nude Kunming mouse assessed as tumor growth inhibition at 6 mg/kg/3 days for 5 times administered iv measured 24 hrs post last dose relative to control; type: functional; settings: read-out: TGI
[7] = Solubility of the compound; type: physicochemical
[8] = Antiproliferative activity against human NCI-H460 cells after 48 hrs by resazurin reduction assay; type: functional, cell-based; settings: NCI-H460, 48 h
[9] = Antiproliferative activity against human SMMC7721 cells after 48 hrs by resazurin reduction assay; type: functional, cell-based; settings: SMMC-7721, 48 h
[10] = Antiproliferative activity against human U251 cells after 48 hrs by resazurin reduction assay; type: functional, cell-based; settings: U-251, 48 h
Mus musculus [11] = experiment: Acute toxicity in mouse assessed as death at <8 mg/kg measured up to 1 hr; type: organism-based; settings: in vivo
[12] = Haemolytic activity in New Zealand rabbit erythrocytes after 60 mins; type: ADME, cell-based, Oryctolagus cuniculus, Erythrocyte; settings: read-out: HD50
[13] = Induction of NO release in DMSO incubated up to 6 hrs by Griess assay; type: physicochemical
[14] = Antitumor activity against mouse H22 cells xenografted in nude Kunming mouse assessed as tumor growth inhibition at 20 mg/kg/day, iv for 14 days measured 24 hrs post last dose relative to control; type: functional; settings: read-out: TGI
Mus musculus [15] = experiment: Acute toxicity in mouse assessed as death at >168 mg/kg measured after 14 days; type: organism-based; settings: in vivo, 336 h
Mus musculus [16] = experiment: Toxicity in nude Kunming mouse xenografted with mouse H22 cells assessed as mouse death at 10 to 20 mg/kg/day, iv for 14 days measured 24 hrs post last dose; type: organism-based; settings: in vivo
[17] = Antitumor activity against mouse H22 cells xenografted in nude Kunming mouse assessed as tumor growth inhibition at 10 mg/kg/day, iv for 14 days measured 24 hrs post last dose relative to control; type: functional; settings: read-out: TGI

Structure (SMILES)	IC50 [1]	IC50 [2]	IC50 [3]	IC50 [4]	IC50 [5]	inhibition in vivo at 6 mg/kg [6]	solubility [7]	IC50 [8]	IC50 [9]	IC50 [10]	Activity (Mus musculus [11])	HC50 at 1 h [12]	Activity [13]	inhibition in vivo at 20 mg/kg/day [14]	Activity (Mus musculus [15])	Activity (Mus musculus [16])	inhibition in vivo at 10 mg/kg/day [17]
C[C@@H]1O[C@@H](O[C@H]2C(O[C@H]3CC[C@]4(C)[C@H]5CC=C6[C@@H]7CC(C)(C)CC[C@]7(C(=O)OC/C=C/COc7no[n+]([O-])c7S(=O)(=O)c7ccccc7)CC[C@@]6(C)[C@]5(C)CC[C@H]4C3(C)C)OC[C@H](O[C@@H]3O[C@H](CO)[C@@H](O)[C@H](O)[C@H]3O)[C@@H]2O)[C@H](O)[C@H](O)[C@H]1O (single isomer, unassigned)	3100 nM	10.1 µM	6.8 µM	4500 nM													
CC(CCOc1no[n+]([O-])c1S(=O)(=O)c1ccccc1)OC(=O)[C@]12CCC(C)(C)C[C@H]1C1=CC[C@@H]3[C@@]4(C)CC[C@H](O[C@@H]5OC[C@H](O[C@@H]6O[C@H](CO)[C@@H](O)[C@H](O)[C@H]6O)[C@H](O)[C@H]5O[C@@H]5O[C@@H](C)[C@H](O)[C@@H](O)[C@H]5O)C(C)(C)[C@@H]4CC[C@@]3(C)[C@]1(C)CC2 (some centres not stated)	2300 nM	11.2 µM	6.2 µM	3700 nM													
C[C@@H]1O[C@@H](O[C@H]2C(O[C@H]3CC[C@]4(C)[C@H]5CC=C6[C@@H]7CC(C)(C)CC[C@]7(C(=O)O)CC[C@@]6(C)[C@]5(C)CC[C@H]4C3(C)C)OC[C@H](O[C@@H]3O[C@H](CO)[C@@H](O)[C@H](O)[C@H]3O)[C@@H]2O)[C@H](O)[C@H](O)[C@H]1O (single isomer, unassigned) [HEDERACOLCHISIDE A1]	2200 nM	8.4 µM	3.7 µM	2800 nM	2.2 to 8.4 µM	47.5%	Insoluble	2.2 to 8.4 µM	2.2 to 8.4 µM	2.2 to 8.4 µM	Toxic	6.7 µM					
O=[N+]([O-])OCC(CO[N+](=O)[O-])O[N+](=O)[O-] [NITROGLYCERIN]													Active				
C[C@@H]1O[C@@H](O[C@H]2C(O[C@H]3CC[C@]4(C)[C@H]5CC=C6[C@@H]7CC(C)(C)CC[C@]7(C(=O)OCCCCOc7no[n+]([O-])c7S(=O)(=O)c7ccccc7)CC[C@@]6(C)[C@]5(C)CC[C@H]4C3(C)C)OC[C@H](O[C@@H]3O[C@H](CO)[C@@H](O)[C@H](O)[C@H]3O)[C@@H]2O)[C@H](O)[C@H](O)[C@H]1O (single isomer, unassigned)	2100 nM	7.3 µM	3.4 µM	2600 nM									Active				
C[C@@H]1O[C@@H](O[C@H]2[C@H](O[C@H]3CC[C@]4(C)[C@H]5CC=C6[C@@H]7CC(C)(C)CC[C@]7(C(=O)OCCCOc7no[n+]([O-])c7S(=O)(=O)c7ccccc7)CC[C@@]6(C)[C@]5(C)CC[C@H]4C3(C)C)OC[C@H](O[C@@H]3O[C@H](CO)[C@@H](O)[C@H](O)[C@H]3O)[C@@H]2O)[C@H](O)[C@H](O)[C@H]1O	1600 nM	6.5 µM	3.1 µM	1900 nM			Insoluble					280 µM	Active	51.5%	Non-Toxic	Non-Toxic	38.3%
